Counter-ions that a name gives are not always drawn.
Columns and labels:
lysozyme = biological target: T1, lysozyme (Gallus gallus, UniProt P00698); experiment: Photochemical labeling of lysozyme with pyridinium salts (General Procedure B, LC/MS); type: biochemical, chicken; settings: lysozyme labeling
T1 construct: Lysozyme (from chicken egg white, >40,000 units/mg of protein); purchased Sigma Aldrich; host or cells: chicken egg white
Experimental: General Procedure B: Photochemical Irradiation of Peptides and Proteins: To a 2 mL Pyrex LC/MS vial (Thermo model #03-391-39) were sequentially added solutions containing the desired biomolecule, glutathione (GSH), pyridinium salt, and ammonium acetate (NH4OAc). The resulting solution was diluted to a final volume of 500 μL and then sparged using nitrogen for a minimum of 30 minutes prior to irradiation. The actively sparging solution was then placed in an EvoluChem™ PhotoRedOx Box photoreactor that was equipped with a Kessil, PR160 427 nm LED Lamp and was then irradiated (100% lamp intensity) for the designated time at room temperature while maintaining active sparging. The resultant reaction mixture was then analyzed directly by LC/MS. Analysis of labeling outcomes using LC/MS was performed either by extracted ion chromatogram intensities (method A) or by integrating the area under the peaks associated with peptide content (method B). These values were totaled, and estimated percentages were assigned according to relative intensities of peaks or ion counts.
Labeling of Lysozyme with Pyridinium Salt 2a (Lysozyme-2a Conjugate). Labeling of lysozyme (14.3 kDa) with the pyridinium salt 2a was performed by following general procedure B using the following solutions: lysozyme (27 μL, 182 μM, 10 μM final concentration), pyridinium salt 2a (200 μL, 500 μM, 200 μM final concentration), NH4OAc (100 μL, 100 mM, pH=6.9, 20 mM final concentration), glutathione (15 μL, 10 mM, 300 μM final concentration), and water (158 μL) with a 100% intensity irradiation time of 60 minutes. The reaction mixture was analyzed directly by LC/MS using method A and was estimated to have proceeded in >95% conversion and a 10.9:1 mono:di labeled ratio and 10% glutathionylation of all unlabeled and labeled protein content was observed.
Labeling of Lysozyme with Pyridinium Salt 2b (Lysozyme-2b Conjugate). Labeling of lysozyme (14.3 kDa) with the pyridinium salt 2b was performed by following general procedure Busing the following solutions: lysozyme (19 μL, 262 μM, […]), 2b (181 μL, 554 μM, 200 μM final concentration), NH4OAc (50 μL, 200 mM, pH=6.9, 20 mM final concentration), glutathione (50 μL, 3 mM, 300 μM final concentration), and water (200 μL) with a 100% intensity irradiation time of 10 minutes. The reaction mixture was analyzed directly by LC/MS using method A and was estimated to have proceeded with 83% conversion. […]
Labeling of Lysozyme with Pyridinium Salt 2c (Lysozyme-2c Conjugate). […] The reaction mixture was analyzed directly by LC/MS using method A and was estimated to have proceeded with 85% conversion and a 3.7:1 mono:di labeled ratio and 10% glutathionylation of all protein content was observed. […]

HEK293T cells = experiment: In-situ chemoproteomic tryptophan profiling of live HEK293T cells; type: cell-based, human
Experimental: Cell culture and in-situ tryptophan probe treatment: Cell lines were cultured at 37° C. with 5% CO2. Human embryonic kidney 293 cells expressing a mutant version of the SV40 large T antigen (HEKT293T cells) were grown in Dulbecco's Modified Eagle Medium (DMEM, Gibco) supplemented with 10% fetal bovine serum and 1% penicillin/streptomycin. For in-situ labeling, cells were grown to 90% confluence, washed with Dulbecco's phosphate buffered saline (DPBS), treated with 100× stocks of the tryptophan probes (the pyridinium salts) in OptiMem (GibCo) to generate final concentrations (0 μM, 1 μM, 10 μM, and 100 μM) in 1% dimethylsulfoxide (DMSO). Cells were incubated for 1 hour at 37° C. with 5% CO2 followed by photo-activation at the respective wavelengths for 20 minutes at 4° C. Cells were harvested with a cell scraper, washed 3× with DPBS, and pellets were stored at −80° C. until further use. The following light sources were used for photo-activation:
In-situ tryptophan probe sample processing for peptide-level characterization: Cell pellets were lysed via sonication (QSonica) at 50% amplitude, 2 seconds ON, 3 seconds OFF, 30 seconds in 40 mM HEPES pH 7.5 (4-(2-hydroxyethyl)-1-piperazineethanesulfonic acid), 1.5 mM magnesium chloride (MgCl2), 1% Sodium dodecyl sulfate (SDS), 0.8% NP-40 (also known as nonyl phenoxypolyethoxylethanol), and 1× protease inhibitors (Thermo). Protein concentration was determined by BCA (Pierce). 400 μg protein lysate were taken for copper-catalyzed azide-alkyne cycloaddition (CuAAC) reactions with 100 μM of the acid cleavable DAPBS Biotin Alkyne (Click Chemistry Tools), 250 μM copper sulfate (CuSO4), 500 μM BTTP (C20H34N10O2) (Click Chemistry Tools), and 2.5 mM ascorbate and incubated for 60 minutes at R.T. Samples were precipitated with methanol:chloroform and re-suspended in 50 mM HEPES pH 8.0 containing 1% RapiGest SF (Waters). The samples were reduced with 10 mM dithiothreitol (DTT) (Pierce) and alkylated with 25 mM iodoacetamide (Pierce). The samples were diluted down to 0.1% RapiGest SF and treated with 4 μg Trypsin/LysC (Promega) at 37° C. for 16 hours. The digested peptides were than labeled with isobaric tandem mass tag (TMT) reagents (Thermo) as specified by the manufacturer. The labeled peptides were then combined, concentrated to remove acetonitrile, and re-suspended in 50 mM HEPES pH 8.0 containing 0.2% SDS. […]
Quantitative proteomics by two-dimensional nano liquid chromatography-tandem mass spectrometry (nLC-MS/MS): For protein-level characterization, the TMT-labeled sample were reconstituted in 0.1% formic acid (FA)/2% acetonitrile for offline high-pH reversed phase separation (RP10) using a Dionex UltiMate 3000 high-performance liquid chromatography (HPLC) system with fraction collection using Chromeleon v.6.8 (Thermo) software. […]

T1 sequence (P00698 19-147): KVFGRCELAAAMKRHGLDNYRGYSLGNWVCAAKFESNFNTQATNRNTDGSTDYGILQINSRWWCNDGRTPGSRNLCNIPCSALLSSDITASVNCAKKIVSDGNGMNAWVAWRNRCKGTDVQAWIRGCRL

SMILES: COc1ccc2cc(-c3cc(C)[n+](N(C)C(=O)OCCCCCCN=[N+]=[N-])c(C)c3)ccc2c1 [pyridinium salt 2d, 1-((((6-azidohexyl)oxy)carbonyl)(methyl)amino)-4-(6-methoxynaphthalen-2-yl)-2,6-dimethylpyridin-1-ium tetrafluoroborate]
- labeling rate compared to pyridinium salt 2a (lysozyme): enhance rates
- Trp-modified peptide fragments detected showing dose response behavior (HEK293T cells; about 100 μM probe, 60 min 37° C., 440 nm 20 min 4° C., peptide-level enrichment): 290
- plasma membrane crossing / subcellular penetration (HEK293T cells; subcellular localization of modified proteins (UniProt)): readily crosses the plasma membrane
- selectivity for tryptophan (HEK293T cells; taking relative amino acid frequency in human proteins into account, FIG. 19B): about 82%
- Western validation of NPM1 and PARP1 in enriched protein mixtures (HEK293T cells; varying concentrations, with and without blue light, protein-level enrichment): found to contain both proteins

Reference: patent US20240262845A1, “PYRIDINIUM SALTS, METHODS OF MAKING, AND METHODS OF USE” (UNIVERSITY OF WYOMING, priority 2023, published 2024)
